The target of experiment [1] is T1, Estrogen receptor (Homo sapiens, UniProt Q92731+P03372). The experiment is described as follows: Inhibition of estrogen dependent human ovarian cancer OVCAR-3 cell proliferation. Type of experiment: functional, cell-based.
The nature of experiment [2]: inhibitory concentration against estrogen independent human uterus cancer cell line KLE. The experiment is classed as functional, cell-based. Particulars: cancer cell lines.
The target in experiment [3] is T1, Estrogen receptor. In words: Inhibition of estrogen dependent human uterus cancer Ishikawa cell proliferation. The experiment is classed as functional, cell-based.
The target of experiment [4] is T1, Estrogen receptor. The experiment is described as follows: Inhibition of estrogen dependent human ovarian cancer SKOV-3 cell proliferation. Type of experiment: functional, cell-based. The following applies: sk-ov-3.
Experiment [5] can be described thus: inhibitory concentration against estrogen independent human uterus cancer cell line HEC-1-A. The following applies: cancer cell lines. The experiment is classed as functional, cell-based.
For the next experiment, the system named is HeLa. The experiment is described as follows: inhibitory concentration against estrogen independent human uterus cancer cell line HeLa. The experiment is classed as functional, cell-based.
Experiment [6] addresses T1, Estrogen receptor. In words: Inhibition of estrogen dependent human uterus cancer RL-95-2 cell proliferation. The experiment is classed as functional.
The subject of experiment [7] is A2780. In words: inhibitory concentration against estrogen independent human ovarian cancer cell line A2780wt. Type of experiment: functional, cell-based.
The subject of experiment [8] is A2780. The experiment is described as follows: inhibitory concentration against estrogen independent human ovarian cancer cell line A2780cp. The experiment is classed as functional, cell-based.

This is an account of results in ChEMBL document CHEMBL1138709, “Biological evaluation of novel estrogen-platinum(II) hybrid molecules on uterine and ovarian cancers-molecular modeling studies” (Bioorg Med Chem Lett, 2004).

On to CISPLATIN, for which the IC50 against Estrogen receptor [1] was determined as 2.5 µM; in [2] it was 12.5 µM; against Estrogen receptor [3], 7.9 µM; on Estrogen receptor [4] it was 5.8 µM; in [5], 11.7 µM; in the experiment on HeLa it was 3.6 µM. The IC50 against Estrogen receptor [6] was found to be 10.3 µM; in the experiment on A2780 [7] it was 0.7 µM; in the experiment on A2780 [8], 6.5 µM.

In general, IC50 refers to the midpoint of a concentration-inhibition curve. A higher IC50 goes with weaker potency.
